Measurements reported in patent publication US11976019B2 (Acuitas Therapeutics, Inc., priority 2020, dated 2024).
Marks after values point to notes of the source that are not given here.

Experiments:
[1] = Determination of pKa of formulated lipids (TNS fluorescence assay in lipid nanoparticles); assay type: physicochemical; details: cationic lipid formulated in LNP (cationic lipid/DSPC/cholesterol/PEG-lipid 50/10/38.5/1.5 mol %); pH of half-maximal TNS fluorescence
Procedure: As described elsewhere, the pKa of formulated cationic lipids is correlated with the effectiveness of LNPs for delivery of nucleic acids (see Jayaraman et al, Angewandte Chemie, International Edition (2012), 51(34), 8529-8533; Semple et al, Nature Biotechnology 28, 172-176 (2010)). The preferred range of pKa is ˜5 to ˜7. The pKa of each cationic lipid was determined in lipid nanoparticles using an assay based on fluorescence of 2-(p-toluidino)-6-napthalene sulfonic acid (TNS). Lipid nanoparticles comprising cationic lipid/DSPC/cholesterol/PEG-lipid (50/10/38.5/1.5 mol %) in PBS at a concentration of 0.4 mM total lipid were prepared using the in-line process as described in Example 1. TNS was prepared as a 100 μM stock solution in distilled water. Vesicles were diluted to 24 μM lipid in 2 mL of buffered solutions containing, 10 mM HEPES, 10 mM IVIES, 10 mM ammonium acetate, 130 mM NaCl, where the pH ranged from 2.5 to 11. An aliquot of the TNS solution was added to give a final concentration of 1 μM and following vortex mixing fluorescence intensity was measured at room temperature in a SLM Aminco Series 2 Luminescence Spectrophotometer using excitation and emission wavelengths of 321 nm and 445 nm. A sigmoidal best fit analysis was applied to the fluorescence data and the pKa was measured as the pH giving rise to half-maximal fluorescence intensity.

[2] = system: luciferase expression in the liver; assay: In vivo luciferase mRNA expression rodent model (liver luciferase after tail vein injection of mRNA-LNP); design: species or system mice (C57BL/6 or CD-1); details: liver 4 hours after administration, FLuc mRNA LNP
[3] = system: luciferase expression in the liver; assay: as above; design: species or system mice (C57BL/6 or CD-1); details: liver 4 hours after administration, FLuc mRNA LNP; for Liver Luc @ 1.0 mg/kg: 1.0 mg mRNA/kg
Procedure: Lipid nanoparticles were prepared and tested according to the general procedures described in PCT Pub. Nos. WO 2015/199952 and WO 2017/004143, the full disclosures of which are incorporated herein by reference. Briefly, cationic lipid, DSPC, cholesterol and PEG-lipid were solubilized in ethanol at a molar ratio of about 50:10:38.5:1.5 or about 47.5:10:40.8:1.7. Lipid nanoparticles (LNP) were prepared at a total lipid to mRNA weight ratio of approximately 10:1 to 30:1. The mRNA is diluted to 0.2 mg/mL in 10 to 50 mM citrate or acetate buffer, pH 4. Syringe pumps were used to mix the ethanolic lipid solution with the mRNA aqueous solution at a ratio of about 1:5 to 1:3 (vol/vol) with total flow rates above 15 mL/min. The ethanol was then removed and the external buffer replaced with PBS by dialysis. Finally, the lipid nanoparticles were filtered through a 0.2 μm pore sterile filter. Lipid nanoparticle particle size was approximately 55-95 nm diameter, and in some instances approximately 70-90 nm diameter as determined by quasi-elastic light scattering using a Malvern Zetasizer Nano ZS (Malvern, UK).
Studies were performed in 6-8 week old female C57BL/6 mice (Charles River) or 8-10 week old CD-1 (Harlan) mice (Charles River) according to guidelines established by an institutional animal care committee (ACC) and the Canadian Council on Animal Care (CCAC). Varying doses of mRNA-lipid nanoparticle were systemically administered by tail vein injection and animals euthanized at a specific time point (e.g., 4 hours) post-administration. Liver and spleen were collected in pre-weighed tubes, weights determined, immediately snap frozen in liquid nitrogen and stored at −80° C. until processing for analysis.
For liver, approximately 50 mg was dissected for analyses in a 2 mL FastPrep tubes (MP Biomedicals, Solon Ohio). ¼″ ceramic sphere (MP Biomedicals) is added to each tube and 500 μL of Glo Lysis Buffer—GLB (Promega, Madison Wis.) equilibrated to room temperature is added to liver tissue. Liver tissues were homogenized with the FastPrep24 instrument (MP Biomedicals) at 2×6.0 m/s for 15 seconds. Homogenate was incubated at room temperature for 5 minutes prior to a 1:4 dilution in GLB and assessed using SteadyGlo Luciferase assay system (Promega). Specifically, 50 μL of diluted tissue homogenate was reacted with 50 μL of SteadyGlo substrate, shaken for 10 seconds followed by 5 minute incubation and then quantitated using a CentroXS^3 LB 960 luminometer (Berthold Technologies, Germany). The amount of protein assayed was determined by using the BCA protein assay kit (Pierce, Rockford Ill.). Relative luminescence units (RLU) were then normalized to total μg protein assayed. To convert RLU to ng luciferase a standard curve was generated with QuantiLum Recombinant Luciferase (Promega).
The FLuc mRNA (L-6107 or L-7202) from Trilink Biotechnologies will express a luciferase protein, originally isolated from the firefly, Photinus pyralis. FLuc is commonly used in mammalian cell culture to measure both gene expression and cell viability. It emits bioluminescence in the presence of the substrate, luciferin. This capped and poly-adenylated mRNA was fully substituted with respect to uridine and/or cytidine nucleosides.
Representative compounds of the disclosure shown in Table 2 were formulated using the following molar ratio: 50% cationic lipid/10% distearoylphosphatidylcholine (DSPC)/38.5% Cholesterol/1.5% PEG lipid 2-[2-(ω-methoxy(polyethyleneglycol2000)ethoxy]-N,N-ditetradecylacetamide) or 47.5% cationic lipid/10% DSPC/40.7% Cholesterol/1.8% PEG lipid. Relative activity was determined by measuring luciferase expression in the liver 4 hours following administration via tail vein injection as described in Example 1. The activity was compared at a dose of 1.0 or 0.5 mg mRNA/kg and expressed as ng luciferase/g liver measured 4 hours after administration, as described in Example 1. Compound numbers in Table 2 refer to the compound numbers of Table 1.

Row | SMILES | pKa [1] | Liver Luc determined at 0.3 mg/kg [2] [ng luc/g liver] | Liver Luc @ 1.0 mg/kg [3] [ng luc/g liver] | Liver Luc determined at 0.5 mg/kg [3]
1 | CCCCCCCCCN(CCCCN(C)C)C(CCCCCCCCC(=O)OCC(CCCC)CCCCCC)CCCCCCCCC(=O)OCC(CCCC)CCCCCC (centres unmarked) [Compound I-6] | 6.22 | 4093 ± 1036 | 11290 ± 6455 | 
2 | CCCCCCC(CCCC)COC(=O)CCCCCCCCC(CCCCCCCCC(=O)OCC(CCCC)CCCCCC)N(CCCN(C)C)C(=O)CCCCC(=O)OC (centres unmarked) [Compound I-14, bis(2-butyloctyl) 10-(N-(3-(dimethylamino)propyl)-6-methoxy-6-oxohexanamido)nonadecanedioate] | 6.8 |  |  | 669 ± 575* *determined at 0.5 mg/kg ng luc/g liver
3 | CCCCCCC(CCCC)COC(=O)CCCCCCCCC(CCCCCCCCC(=O)OCC(CCCC)CCCCCC)N(CCCC(=O)N(CCCCCC)CCCCCC)CCCN(C)C (centres unmarked) [Compound I-21, bis(2-butyloctyl) 10-((4-(dihexylamino)-4-oxobutyl)(3-(dimethylamino)propyl)amino)nonadecanedioate] | 6.4 | 7723 ± 1714 | 20223 ± 5982 | 
4 | CCCCCCCCC(CCCCCC)C(=O)OCCCCCCN(CCCCN(C)C)C(CCCCCCCCC(=O)OCC(CCCC)CCCCCC)CCCCCCCCC(=O)OCC(CCCC)CCCCCC (centres unmarked) [Compound I-5, bis(2-butyloctyl) 10-((4-(dimethylamino)butyl)(6-((2-hexyldecanoyl)oxy)hexyl)amino)nonadecanedioate] | 6.08 |  | 11720 ± 2439 | 
5 | CCCCCCCCN(CCCCN(C)C)C(CCCCCCCCC(=O)OCC(CCCC)CCCCCC)CCCCCCCCC(=O)OCC(CCCC)CCCCCC (centres unmarked) [Compound I-23, bis(2-butyloctyl) 10-((4-(dimethylamino)butyl)(octyl)amino)nonadecanedioate] | 6.33 |  |  | 553 ± 153* *determined at 0.5 mg/kg ng luc/g liver
6 | CCCCCCCCC(CCCCCC)COC(=O)CCCCCC(CCCCCC(=O)OCC(CCCCCC)CCCCCCCC)N(CCN(C)C)C(=O)CCCCCCC(=O)OC (centres unmarked) [Compound I-18, bis(2-hexyldecyl) 7-(N-(2-(dimethylamino)ethyl)-8-methoxy-8-oxooctanamido)tridecanedioate] | 6.02 |  | 40650 ± 11479 | 
7 | CCCCCCC(CCCC)COC(=O)CCCCCCCCC(CCCCCCCCC(=O)OCC(CCCC)CCCCCC)N(CCN(C)C)C(=O)CCCCC(=O)OC (centres unmarked) [Compound I-15, bis(2-butyloctyl) 10-(N-(2-(dimethylamino)ethyl)-6-methoxy-6-oxohexanamido)nonadecanedioate] | 5.96 |  | 21357 ± 15325 | 
8 | CCCCCCCCC(CCCCCC)C(=O)OCCCCCCN(CCCCN(C)C)C(CCCCCCCCC(=O)OCC(CC)CCCC)CCCCCCCCC(=O)OCC(CC)CCCC (centres unmarked) [Compound I-22, bis(2-ethylhexyl) 10-((4-(dimethylamino)butyl)(6-((2-hexyldecanoyl)oxy)hexyl)amino)nonadecanedioate] | 6.28 | 5291 ± 1348 | 17654 ± 8167 | 
9 | CCCCCCCCOC(=O)CCN(CCCCN(C)C)C(CCCCCC(=O)OCC(CCCCCC)CCCCCCCC)CCCCCC(=O)OCC(CCCCCC)CCCCCCCC (centres unmarked) [Compound I-4, bis(2-hexyldecyl) 7-((4-(dimethylamino)butyl)(3-(octyloxy)-3-oxopropyl)amino)tridecanedioate] | 6.17 |  | 46932 ± 17399 | 
10 | CCCCCCCCC(CCCCCC)COC(=O)CCCCCC(CCCCCC(=O)OCC(CCCCCC)CCCCCCCC)N(CCCC(=O)N(CCCCCC)CCCCCC)CCN(C)C (centres unmarked) [Compound I-19, bis(2-hexyldecyl) 7-((4-(dihexylamino)-4-oxobutyl)(2-(dimethylamino)ethyl)amino)tridecanedioate] | 5.95 |  | 32706 ± 4621 | 
11 | CCCCCCC(CCCC)COC(=O)CCCCCC(CCCCCC(=O)OCC(CCCC)CCCCCC)N(CCCC(=O)N(CCCCCC)CCCCCC)CCCN(C)C (centres unmarked) [Compound I-20, bis(2-butyloctyl) 7-((4-(dihexylamino)-4-oxobutyl)(3-(dimethylamino)propyl)amino)tridecanedioate] | 6.48 | 4140 ± 1117 | 17095 ± 8181 | 
12 | CCCCCCCCOC(=O)CCN(CCCCN(C)C)C(CCCCCCCCC(=O)OCC(CCCC)CCCCCC)CCCCCCCCC(=O)OCC(CCCC)CCCCCC (centres unmarked) [Compound I-1] | 6.11 |  | 24031 ± 4777 | 
13 | CCCCCCCCC(CCCCCC)COC(=O)CCCCCC(CCCCCC(=O)OCC(CCCCCC)CCCCCCCC)N(CCCN(C)C)C(=O)CCCCCCC(=O)OC (centres unmarked) [Compound I-17, bis(2-hexyldecyl) 7-(N-(3-(dimethylamino)propyl)-8-methoxy-8-oxooctanamido)tridecanedioate] | 6.78 |  | 26691 ± 13186 | 
14 | CCCCCCCCOC(=O)CCN(CCCCCN(C)C)C(CCCCCCCCC(=O)OCC(CCCC)CCCCCC)CCCCCCCCC(=O)OCC(CCCC)CCCCCC (centres unmarked) [Compound I-2, bis(2-butyloctyl) 10-((5-(dimethylamino)pentyl)(3-(octyloxy)-3-oxopropyl)amino)nonadecanedioate] | 6.67 | 122 ± 18 | 682 ± 147 | 
15 | CCCCCCCCC(CCCCCC)COC(=O)CCCCCC(CCCCCC(=O)OCC(CCCCCC)CCCCCCCC)N(CCN(C)C)C(=O)CCCCC(=O)OC (centres unmarked) [Compound I-16, bis(2-hexyldecyl) 7-(N-(2-(dimethylamino)ethyl)-6-methoxy-6-oxohexanamido)tridecanedioate] | 6.25 |  | 66763 ± 15823 | 
